The values below come from patent US20240423203A1, “Herbicidally Active Combination for Agricultural Applications” (priority 2021, published 2024).

Series [1] has as its system potato plants. As to the kind of experiment: Desiccant action on potato leaf, field plots, visual evaluation 15 DAA (Example 3). In kind it is in vivo. The following applies: for Desiccation (%): potato leaf, 15 DAA; for effect in combination with the herbicides tested (synergistic / antagonist): potato desiccation, Colby analysis. From the text: The desiccant was applied by spraying.

The subject of series [2] is potato plants. As to the kind of experiment: Desiccant action on potato leaf of carfentrazone-ethyl with polyferulates of different molecular weight (Example 4). To be noted: application rate 25 g a.i. ha^−1, 15 DAA.
The test system of series [3] is Lemna minor. As to the kind of experiment: Herbicide activity on Lemna minor in vitro, fresh weight reduction (Example 5). The following applies: all chemicals at 10 mg/L; 7-day exposure. Format: in vivo. How it is done:
The experiment was carried out in Lemna minor growing in vitro conditions. Lemna minor (duckweed) was bought in the local market. A stock culture was maintained on modified Hoagland medium in a controlled environment. The pH of the medium was adjusted to 6.0, and the plants were grown under static conditions in a plant growth chamber at 25±2° C., light/dark regime of 16 h/8 h.
For the experiments, fronds free from any visible chlorosis were taken from the stock cultures and exposed to the appropriate treatment. For each treatment, we used six repetitions with three fronds per repetition as the initial frond number. Individual fronds were transferred to a 12 well multiplate containing Hoagland medium (control), Hoagland medium containing polyferulates, herbicides or the combination as shown in Table 8. All chemicals were evaluated at the same concentration (10 mg/L). The multiplate was covered with a transparent cover to prevent evaporation. The herbicide activity was evaluated as fresh weight reduction compared to untreated plants after one week of incubation in the described conditions.

Series [4] relates to Echinochloa colona. As to the kind of experiment: Herbicide activity on Echinochloa colona, visual evaluation 20 DAT (Example 6). In kind it is in vivo. From the text:
Echinochloa colona is a cosmopolitan weed common in crops (mainly rice, maize and vegetables), gardens, roadsides, disturbed sites, waste areas and pastures. It also grows along waterways, on the margins of lakes and ponds, in swamps and wetlands, and in other damp habitats. It has the potential to invade natural areas and completely outcompete native vegetation. This weed pose a significant threat to rice productivity globally and are usually reported as noxious weeds in several economically important crops around the world. E. colona has vigorous growth traits and high seed production since each E. colona plant can produce up to 42,000 seeds. The experiment in Echinochloa colona plants was carried out in independent pots and in four replications. […] The products were applied by spraying. The herbicide activity was visually evaluated 20 days after treatment.

The subject of series [5] is potato plants. As to the kind of experiment: Greenhouse potato trial: fresh weight reduction and quantum yield of PSII (Example 7). To be noted: for Fresh weight of the plants (% of control): 14 DAA; for Quantum yield of PSII: three days after foliar application. Format: in vivo. How it is done:
The trial was carried out in a greenhouse in potato plants. The desiccant (pyraflufen-ethyl, a Protoporphyrinogen Oxidase (PPO) Inhibitor) was applied by spraying at different percentage of the recommended doses alone or combined with polyferulates. The effect of the herbicide was first evaluated by measurements of the photosynthetic capacity of treated leaves using the QY (quantum yield) three days after foliar application and the final desiccation efficiency was evaluated 14 days after treatment. The herbicide activity (desiccation efficiency) was evaluated as fresh weight reduction respect to untreated plants (control) an expressed in percentage.

Series [6] relates to potato plants. As to the kind of experiment: Desiccant action on potato leaf in function of polyferulate application timing (Example 8). In kind it is in vivo. The following applies: application rate 10.6 g a.i. ha^−1; 15 days after treatment. From the text: Polyferulates were applied the day before the desiccant spraying (D−1), in tank mix combination with the desiccant (D−0) or the day after the desiccant spraying (D+1). […] The desiccant was applied by spraying.

For series [7], the system named is Tomato (Solanum lycopersicum) plants. As to the kind of experiment: Herbicide uptake into plant foliage: distribution of pyraflufen-ethyl between leaf fractions (Example 9). Format: in vivo. To be noted: tomato leaves. How it is done:
Tomato (Solanum lycopersicum) plants were sprayed with a diluted solution of pyraflufen-ethyl herbicide or a diluted solution of pyraflufen-ethyl herbicide combined with polyferulates. Samples of treated leaves were taken at 2 h and 24 h after treatment. An extraction procedure following successive steps was used to describe the distribution of pyraflufen-ethyl residues on and in plant leaves. Four fractions of pesticide residues were recovered: (i) the fraction of pesticide susceptible to wash-off by rain that was assumed to correspond to the water-washable fraction, (ii) the fraction of pesticide having adsorbed on the leaf surface that was assumed to correspond to the ethanol-extracted fraction, (iii) the fraction of pesticide having penetrated into the cuticle that was assumed to correspond to the hexane-extracted fraction, and (iv) the fraction of pesticide having penetrated into the foliar tissues that was assumed to correspond to the bound residues fraction.

Setting [8] is: pyraflufen-ethyl at 25% of recommended dose.
[9] abbreviates: pyraflufen-ethyl at 50% of recommended dose.
[10] abbreviates: pyraflufen-ethyl at 75% of recommended dose.
The mark [11] stands for this setting: pyraflufen-ethyl at 100% of recommended dose.

On to `CCOC(=O)C(Cl)Cc1cc(-n2nc(C)n(C(F)F)c2=O)c(F)cc1Cl` (centres unmarked) [Carfentrazone-ethyl], for which the results for the “Desiccation (%)” value in series [1] (application rate 30), in series [1] (application rate 60) and in series [2] were 73%, 96% and 56%, respectively.
In the case of `CCOC1Oc2ccc(OS(C)(=O)=O)cc2C1(C)C` (centres unmarked) [Ethofumesate], the “Herbicide activity (fresh weight reduction compared to untreated plants)” value in series [3] amounted to 0.
Turning to `COc1cc(/C=C/C(=O)O)ccc1O` [Ferulic acid, (2E)-3-(4-hydroxy-3methoxyphenyl)prop-2-enoic acid], the “Desiccation (%)” value in series [1] (application rate 12) worked out at 3%. Further, the “effect in combination with the herbicides tested (synergistic / antagonist)” value in series [1] was “antagonist”.
In series [4] (application rate 550 g a.i. ha^−1), `O=C(O)CNCP(=O)(O)O` [Glyphosate] displayed a Herbicide activity of 59%.
On to `CCCCCCCCC(=O)O` [Pelargonic acid], for which the “Desiccation (%)” value was found to be 51% in series [1] (application rate 2720), 68% in series [1] (application rate 5440) and 95% in series [1] (application rate 10880).
In series [4] (application rate 30 g a.i. ha^−1), `COc1cnc(OC)n2nc(NS(=O)(=O)c3c(OCC(F)F)cccc3C(F)(F)F)nc12` [Penoxsulam] returned a Herbicide activity of 16%.
As for `COC(=O)Nc1cccc(OC(=O)Nc2cccc(C)c2)c1` [Phenmedipham], the “Herbicide activity (fresh weight reduction compared to untreated plants)” value in series [3] was 3.
Turning to `CCCC(=NOCC(C)Oc1ccc(Cl)cc1)C1=C(O)CC(C2CCCSC2)CC1=O` (centres unmarked) [Profoxydim], in series [3], the “Herbicide activity (fresh weight reduction compared to untreated plants)” value is 45. This compound gave a Herbicide activity in series [4] (application rate 110 g a.i. ha^−1) of 34%.
Regarding `CCOC(=O)COc1cc(-c2nn(C)c(OC(F)F)c2Cl)c(F)cc1Cl` [Pyraflufen-ethyl], the “Fresh weight of the plants (% of control)” value in series [5] (setting [8]) is 39 % of control; in series [5] (setting [9]), 22 % of control; in series [5] (setting [10]), 14 % of control; in series [5] (setting [11]) it was 10 % of control. Moreover, the “Quantum yield of PSII” value in series [5] (setting [8]) was determined as 0.6; in series [5] (setting [9]) it was 0.461; in series [5] (setting [10]), 0.385; in series [5] (setting [11]), 0.335. Besides, the “Desiccation (%)” value worked out at 79% in series [6]; 60% in series [1] (application rate 5.3); 78% in series [1] (application rate 10.6); 85% in series [1] (application rate 15.9); 90% in series [1] (application rate 21.2). The “pyraflufen-ethyl in Bound residues fraction” value in series [7] (2 h after treatment) is 0.16 μg/g of fresh weight leaves; in series [7] (24 h after treatment), 0.12 μg/g of fresh weight leaves. Moreover, the results for the “pyraflufen-ethyl in Ethanol-extracted fraction” value in series [7] (2 h after treatment) and in series [7] (24 h after treatment) were 1.88 μg/g of fresh weight leaves and 1.59 μg/g of fresh weight leaves, respectively. Also, the “pyraflufen-ethyl in Hexane-extracted fraction” value in series [7] (2 h after treatment) is reported as 0.51 μg/g of fresh weight leaves; in series [7] (24 h after treatment), 0.94 μg/g of fresh weight leaves. Also, the figures for the “pyraflufen-ethyl in Water-washable fraction” value in series [7] (2 h after treatment) and in series [7] (24 h after treatment) were 3.34 μg/g of fresh weight leaves and 3.1 μg/g of fresh weight leaves, respectively.
As for `COC(=O)c1cccc(C)c1S(=O)(=O)NC(=O)Nc1nc(OCC(F)(F)F)nc(N(C)C)n1` [Triflusulfuron-methyl], in series [3], the “Herbicide activity (fresh weight reduction compared to untreated plants)” value is listed as 34.
Turning to Diferulic acid, the “Desiccation (%)” value in series [1] (application rate 12) stood at 2%. Moreover, the “effect in combination with the herbicides tested (synergistic / antagonist)” value in series [1] is recorded as “antagonist”.
